Experimental data: patent US12029742B2, “Compositions and methods for the repair of myelin” (Duke University, priority 2014, dated 2024)

Key:
[1] = system: Primary neural stem cells; assay: In vitro oligodendrocyte differentiation from neural stem cells with breast milk-associated oxysterols (western blot); type: cell-based; conditions: 1 μm and 0.5 μm for five days, then 18 days differentiation; FIG. 8
Description: FIG. 8 is a western blot analysis. Stem cells were treated with oxysterols at doses indicated for 5 days then allowed to differentiate for 18 days. Primary neural stem cells were treated with 24-hydroxycholesterol and 25-hydroxycholesterol at 1 μm and 0.5 μm for five days, then allowed to differentiate for 18 days. Protein lysates were probed for oligodendrocyte-associated proteins CNPase and myelin basic protein (MBP).

smoothened (SMO) = smoothened (SMO) (Homo sapiens, UniProt Q99835); conditions: fibroblast cell culture systems; recent studies; cited from earlier work
Sequence of smoothened (SMO) (Q99835 28-787): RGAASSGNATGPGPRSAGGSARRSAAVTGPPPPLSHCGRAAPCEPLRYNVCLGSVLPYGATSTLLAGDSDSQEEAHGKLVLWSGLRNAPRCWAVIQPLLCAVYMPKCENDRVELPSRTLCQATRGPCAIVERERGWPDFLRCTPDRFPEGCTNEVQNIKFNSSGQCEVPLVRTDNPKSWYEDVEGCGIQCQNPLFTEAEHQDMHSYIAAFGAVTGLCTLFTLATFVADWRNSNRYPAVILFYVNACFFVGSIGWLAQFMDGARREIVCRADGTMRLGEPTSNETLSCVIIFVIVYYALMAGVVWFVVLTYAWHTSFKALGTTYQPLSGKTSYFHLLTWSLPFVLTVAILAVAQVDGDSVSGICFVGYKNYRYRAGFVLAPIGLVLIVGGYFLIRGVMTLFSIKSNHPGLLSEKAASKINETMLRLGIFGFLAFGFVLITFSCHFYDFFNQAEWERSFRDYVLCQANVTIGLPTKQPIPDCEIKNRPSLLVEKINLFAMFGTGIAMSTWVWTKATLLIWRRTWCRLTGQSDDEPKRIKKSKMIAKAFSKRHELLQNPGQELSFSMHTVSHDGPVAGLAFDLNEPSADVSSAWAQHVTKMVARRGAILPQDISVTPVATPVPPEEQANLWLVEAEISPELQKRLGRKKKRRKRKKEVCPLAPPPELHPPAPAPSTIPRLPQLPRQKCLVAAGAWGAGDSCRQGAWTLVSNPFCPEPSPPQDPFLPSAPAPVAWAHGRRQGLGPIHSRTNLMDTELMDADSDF

[2] = system: primary neural stem cells from neonatal mice; assay: In vitro oligodendrocyte differentiation from neural stem cells; type: cell-based
Description: To determine the impact of oxysterol exposure on cellular differentiation, primary neural stem cells from neonatal mice were cultured in chamber slides. Cells were cultured in media alone (control) or 1 μM 20α-hydroxycholesterol for 7 days were then allowed to differentiate for 18 days. The differentiated cells were immunostained for markers of oligodendrocytes (Olig2 and CNPase) and visualized on a confocal microscope (FIG. 1A). […] Protein samples from control and 20α-hydroxycholesterol treated stem cell cultures were then fractionated and probed for markers of the oligodendrocyte lineage.

[3] = system: olig2APC+ oligodendrocytes in the periventricular white matter of the corpus callosum; assay: Perinatal mouse model of sepsis-associated myelin injury, stereological oligodendrocyte counting; type: in vivo, mice; conditions: sepsis injury on postnatal day 5; 100 mg/kg/day subcutaneous for 5 days from 24 hours after injury; stereology on postnatal day 25; p=0.001
Description: Quantification of oligodendrocyte cell numbers in the brain is critical to determining the impact of oxysterol therapy. Stereology is a useful research tool used by neuroscientists to provide accurate and unbiased estimates of cell numbers within specified brain regions. The number of oligodendrocyte numbers is determined using Stereo Investoigator™ software (MBF Bioscience) and a Zeiss Axiolmager M2 motorized fluorescent microscope with Apotome structured illumination. Perfusion fixed cryoprotected brains are frozen sectioned at […] and collected free-floating in phosphate buffered saline. […] Olig2+APC+ nucleated cells are then counted throughout the corpus callosum using a 63× oil objective lens.
Perinatal bowel perforation is a common complication of premature birth and is strongly linked to myelin injury and cerebral palsy. Using a perinatal mouse model of bowel perforation to induce sepsis-associated diffuse myelin injury on postnatal day 5, sepsis mice were determined to have a 60% reduction of mature oligodendrocytes at postnatal day 25 (FIG. 3).
To determine the efficacy of oxysterol therapy, the perinatal mouse model was employed to induce injury in mice on postnatal day 5. […] Coronal sections of the brains were analyzed using stereology on postnatal day 25 to determine the number of olig2APC+ oligodendrocytes in the periventricular white matter of the corpus callosum. […]

[4] = system: sepsis-induced myelin injury; assay: CatWalk gait analysis of mice after perinatal sepsis-induced myelin injury; type: in vivo; conditions: sepsis-injured mice
Text: The detection of differences in locomotor function is an important tool for the assessment of the severity of many conditions that affect the central nervous system (CNS), peripheral nervous system (PNS) and skeletal structures or muscles. A gait analysis system, such as the CatWalk™ XT, provides automatic and sensitive detection of a full range of parameters related to footprints and the dynamics of gait in animal testing.
The impact of oxysterol therapy on motor function in injured mice was also determined. Mice were subjected to sepsis-induced myelin injury on postnatal day 5. Twenty-four hours after injury, septic mice were divided into a vehicle control group and an oxysterol treated group. Treatment with 20α-hydroxycholesterol (100 mg/kg/day) was carried out daily for five days. At two months of age (adult), mice were evaluated on a CatWalk Gait Analysis System (Noldus Inc.). The gait analysis system identified multiple disturbances in the gait of untreated mature mice that survived perinatal sepsis. However, these gait disturbances were not present in mice treated with 20α-hydroxycholesterol.
Regularity Index: Regularity Index is a measure of interpaw coordination, and disturbances in regularity may be a result of cerebral injury. The Regularity Index was determined for uninjured control mice (FIG. 4A, FIG. 4D), sepsis mice (FIG. 4B, FIG. 4D), and septic mice treated with the oxysterol 20HC (FIG. 4C, FIG. 4D).
Stand and step cycle: Stand and step cycle are measures of the length of time the animal's paws are in contact with the platform as they walk. Increased stand and step cycle times are measures of gait instability.
Swing and swing speed: Swing and swing speed are measures of the animals “rocking” as they walk. While the swing was increased in perinatal sepsis survivors (FIG. 5C), the swing speed was decreased in sepsis survivors (FIG. 5D) consistant with an unsteady gait.

[5] = system: olig2+ cells in the corpus callosum; assay: In vivo oligodendrocyte differentiation in uninjured postnatal mice; conditions: uninjured five-day old mice, 100 mg/kg/day subcutaneously, 4 daily doses, analyzed five days after final injection; vs vehicle; p<0.02
Description: 20α-hydroxycholesterol was administered to uninjured postnatal mice during the normal myelination period to determine if oxysterol exposure increased the numbers of oligodendrocytes in vivo. Five-day old mice were administered 4 daily doses of vehicle control (n=4) or 20α-hydroxycholesterol (n=4) subcutaneously (100 mg/kg/day) and rested. Five days after the final injection, the mice were analyzed to quantify the number of olig2+ cells in the corpus callosum (FIG. 2A, FIG. 2B).

SMILES: C[C@H](CCCC(C)(C)O)[C@H]1CC[C@H]2[C@@H]3CC=C4C[C@@H](O)CC[C@]4(C)[C@H]3CC[C@]12C [25-hydroxycholesterol]
- expression of oligodendrocyte-associated proteins CNPase and MBP (western blot) [1]: induced expression

SMILES: CC(C)CC[C@@H](O)[C@@H](C)[C@H]1CC[C@H]2[C@@H]3CC=C4C[C@@H](O)CC[C@]4(C)[C@H]3CC[C@]12C [22α-hydroxycholesterol]
- SHH pathway activation via direct binding to smoothened (SMO) (smoothened (SMO)): activate the SHH pathway

SMILES: CC(C)CCC[C@](C)(O)[C@H]1CC[C@H]2[C@@H]3CC=C4C[C@@H](O)CC[C@]4(C)[C@H]3CC[C@@]21C [20α-hydroxycholesterol]
- olig2+ CNPase+ cells (oligodendrocytes), cell counting ([2]; 1 μM for 7 days, then 18 days differentiation, vs media alone, p<0.02, FIG. 1C): significant increase
- CNPase, Olig2 and myelin basic protein (MBP), Western blot ([2]; 1 μM treated stem cell cultures vs control, FIG. 1D): increase
- amount of oligodendrocytes (olig2APC+) within the periventricular white matter [3]: significantly increased
- SHH pathway activation via direct binding to smoothened (SMO) (smoothened (SMO)): activate the SHH pathway
- gait disturbances (CatWalk Gait Analysis System) ([4]; 100 mg/kg/day daily for five days, evaluated at two months of age): not present
- Regularity Index (interpaw coordination) ([4]; 100 mg/kg/day daily for five days, two months of age, FIG. 4D): completely reversed any observed deficits
- Swing and swing speed ([4]; FIG. 5C, 5D): reversed all of these measures of gait disturbances
- olig2+ cell population in the corpus callosum [5]: significant increase

SMILES: CC(C)C(O)CC[C@@H](C)[C@H]1CC[C@H]2[C@@H]3CC=C4C[C@@H](O)CC[C@]4(C)[C@H]3CC[C@]12C (some centres unmarked) [24-hydroxycholesterol]
- expression of oligodendrocyte-associated proteins CNPase and MBP (western blot) [1]: induced expression
